One test deals with SKOV3 cells. As to the kind of experiment: Sulforhodamine B (SRB) assay, single agent. The format is cell-based. Particulars: SRB assay on day 4, read-out: IC50. The protocol: SKOV3 cells were purchased from American Type Culture Collection (ATCC). They were cultured at 37° C. and 5% CO2 in Gibco™ RMPI Medium 1640+GlutaMAX™-I (Life Technologies; 61870-010) with 10% Gibco™ FBS (Life Technologies; 10270-106) and 1% Gibco™ Penicillin-Streptomycin (Life Technologies; Ser. No. 15/140,122), known as complete medium, in a cell culture flask. Cisplatin was purchased from TEVA UK Limited (PL 00289/1146). Fluvastatin and Sulforaphane were both purchased from Merck Millipore Corporation (Catalogue numbers 344096 and 574215 respectively). (S)-NUC-1031 was provided by NuCana® Ltd.
SKOV3 cells were plated at 250 cells in 200 μl per well in the middle 60 wells of Costar® 3596 96-well plates, with the outer 36 wells filled with 200 μl PBS each. The cells were allowed to grow in complete medium for 48 hours before different drug compounds were added in. For single agent, cisplatin, (S)-NUC-1031, fluvastatin and sulforaphane in complete medium at 10 different concentrations were added into the middle 60 wells (Day 0). Each concentration was loaded in sextuplicate. Cells were exposed to the compounds for 24 hours and the compounds were replaced by pure complete medium. The experiment with fluvastatin was repeated with 4-day exposure instead of 24 hours. The plates were fixed with 50 μl 25% TCA solution at 4° C. for 60 minutes on day 4 after the drug compounds were added for Sulforhodamine B assay (see below).
After adding the TCA solution, the plates were washed under running tap water 10 times and were allowed to dry in the oven at 50° C. The cells were then stained with 50 μl SRB dye, and the dye was washed off with 1% glacial acetic acid for 4 times 30 minutes after SRB addition. The plates were then dried in the oven. SRB dye was allowed to dissolve in 150 μl 10 mM Tris buffer solution for 60 minutes on a rocker. The plates were read on Biohit BP800 Microplate Reader (Biohit Healthcare) and the absorbance was measured at 540 nm. […]

The test system of a further test is 5637. As to the kind of experiment: CellTiter-Glo cytotoxicity assay, single agents (Stage 1). The format is cell-based. The settings on record: CTG assay 72 h. The protocol: (§1) A2780, SK-OV-3, OVCAR-3, NCI-H460, NCI-H1975, NCI-H2122, 5637 and HT1376 were cultured in RPMI Medium 1640 (Invitrogen-22400105) supplemented with 10% fetal bovine serum (FBS; Invitrogen-10099141). All the cell lines were maintained in a humidified incubator at 37° C. with 5% CO2. Cell culture media and supplements were purchased from Invitrogen, and tissue culture flasks were purchased from Corning, 96-well plates and 384-well plates were purchased from Greiner. CellTiter-Glo Luminescent Cell Viability Assay kits were purchased from Promega (Promega-G7573), cells counter Vi-Cell was purchased from Beckman, detection instrument Envision was purchased from PerkinElmer.
(§2) Paclitaxcel (used as a reference) and cisplatin were purchased from SELLECK, and they were of highest purity available. All compounds attained solubility in DMSO and when diluted into culture media. DMSO, compounds solutions and culture media were warmed to 37° C. for the solution preparation and dilutions.
(§3) Eight cell lines were allowed to adhere to 96-well plates overnight (100 μL/well), for drug treatments with 3.16 fold dilution, 9 dose points, triplicates or vehicle control, compound stock solutions were prepared in DMSO and added to the wells to give the indicated final drug concentrations. Final DMSO concentration was 0.5%. Cellular ATP concentrations were assessed by using the CellTiter-Glo Cell Viability Assay as per the manufacturer's instructions 72 h after drug addition.
(§4) In Stage 1 the IC50 (using 5 or more concentrations) of each individual compound (cisplatin, gemcitabine and NUC-1031) in the relevant cell lines was determined.
A general note: ATP-based viability assays read luminescence as a measure of living cells.

The next test has as its system A2780. The description is as above. In kind it is cell-based. Particulars: CTG assay 72 h. The protocol: as §1, §2, §3, §4
The next test concerns HT1376. The test is described as above. The format is cell-based. The protocol:
as §1, §2, §3, §4

The next test deals with NCI-H1975. The description is as above. The format is cell-based. The settings on record: CTG assay 72 h. How it is done:
as §1, §2, §3, §4

The test system of another test is NCI-H460. The test is described as above. The format is cell-based. The settings on record: CTG assay 72 h. The protocol: as §1, §2, §3, §4
Another test concerns OVCAR-3. The description is as above. In kind it is cell-based. Particulars: CTG assay 72 h. How it is done:
as §1, §2, §3, §4

The next test relates to SK-OV3. The description is as above. The format is cell-based. How it is done: as §1, §2, §3, §4
Another test concerns HT1376 (Bladder). As to the kind of experiment: CellTiter-Glo combination analysis (Stage 2). The format is cell-based. Particulars: cisplatin alone dose-effect curve. How it is done:
A2780, SK-OV-3, OVCAR-3, NCI-H460, NCI-H1975, NCI-H2122, 5637 and HT1376 were cultured in RPMI Medium 1640 (Invitrogen-22400105) supplemented with 10% fetal bovine serum (FBS; Invitrogen-10099141). All the cell lines were maintained in a humidified incubator at 37° C. with 5% CO2. Cell culture media and supplements were purchased from Invitrogen, and tissue culture flasks were purchased from Corning, 96-well plates and 384-well plates were purchased from Greiner. CellTiter-Glo Luminescent Cell Viability Assay kits were purchased from Promega (Promega-G7573), cells counter Vi-Cell was purchased from Beckman, detection instrument Envision was purchased from PerkinElmer. 8 cell lines were allowed to adhere to 384 well plates overnight (60 μL/well), for combination study, four combinations of two compounds will be investigated twice, keeping one compound at a fixed concentration while increasing the concentration of the second compound (10 fold dilution, 5 dose points), compound stock solutions were prepared in DMSO and added to the wells to give the indicated final drug concentrations by D300e digital dispenser. […] Cellular ATP concentrations were assessed by using the CellTiter-Glo Cell Viability Assay as per the manufacturer's instructions 72 hours after drug addition. Stage 2 determined the interaction of selected combinations of compounds on cancer cell growth. […]

The subject of a further test is biliary tract cancer. The settings on record: cited from earlier work.
[1] abbreviates: absolute IC50, read-out: Ab IC50.
The mark [2] stands for this setting: CTG assay 72 h, absolute IC50, read-out: Ab IC50.
Setting [3] is: CTG assay 72 h, relative IC50, read-out: IC50.
The mark [4] stands for this setting: Homo sapiens, absolute IC50, read-out: Ab IC50.
Setting [5] is: Homo sapiens, relative IC50, read-out: IC50.

Where two headings read alike, the source gives them in different places. Where only a bound is given, the exact number is not on record here.

With `C[S+]([O-])CCCCN=C=S` (stereo not drawn) [sulforaphane, Sulforaphane], in the test with SKOV3 cells (Homo sapiens, SK-OV-3, 24 hours exposure), the IC50 was 7000 nM.

On to `N.N.[Cl][Pt][Cl]` [Cisplatin, cisplatin], for which the “Max Inhibition_%” value turned out to be 101.74% in the test with 5637; 99.05% in the test on A2780; 71.90% with HT1376 (CTG assay 72 h); 103.60% with NCI-H1975; 97.56% with NCI-H460; 79.59% in the test with OVCAR-3. Also, the “Max Inhibition_%” value in the test with SK-OV3 (CTG assay 72 h) came out at 86.42%. The IC50 was found to be 13700 nM in the test with 5637 (setting [1]); 13200 nM in the test with 5637 (relative IC50, read-out: IC50); 11000 nM in the test on A2780 (setting [1]); 10100 nM in the test on A2780 (relative IC50, read-out: IC50); 20500 nM in the test with HT1376 (setting [2]); 18400 nM with HT1376 (setting [3]). In addition, the IC50 is 69600 nM with NCI-H1975 (setting [1]); 69200 nM in the test with NCI-H1975 (relative IC50, read-out: IC50); 2590 nM with NCI-H460 (setting [1]); 2570 nM with NCI-H460 (relative IC50, read-out: IC50); 28300 nM in the test on OVCAR-3 (setting [1]); 23500 nM in the test on OVCAR-3 (relative IC50, read-out: IC50). Moreover, the IC50 was determined as 45600 nM in the test on SK-OV3 (setting [2]); 33700 nM in the test with SK-OV3 (setting [3]); 58000 nM in the test on HT1376 (Bladder) (listed as Cisplatin 2, read-out: IC50 (curve shift method)); 64400 nM in the test on HT1376 (Bladder) (read-out: IC50 (curve shift method)); 2440 nM in the test on SKOV3 cells (24 hours exposure).

On to `Nc1ccn([C@@H]2O[C@H](CO)[C@@H](O)C2(F)F)c(=O)n1` [Gemcitabine], for which the “Max Inhibition_%” value in the test with 5637 is given as 84.49%; in the test on A2780, 81.15%; in the test on HT1376 (CTG assay 72 h) it was 9.60%; in the test with NCI-H1975, 62.12%; in the test with NCI-H460 it was 96.28%; in the test on OVCAR-3, 6.95%. In addition, the “Max Inhibition_%” value in the test on SK-OV3 (CTG assay 72 h) is given as 65.74%. The IC50 in the test on 5637 (setting [1]) is 10 nM; in the test on 5637 (relative IC50, read-out: IC50), 10 nM; with A2780 (setting [4]) it was 10 nM; in the test on A2780 (setting [5]), 10 nM; with HT1376 (Homo sapiens, HT-1376, CTG assay 72 h, absolute IC50, read-out: Ab IC50), above 1980 nM; in the test with HT1376 (Homo sapiens, HT-1376, CTG assay 72 h, relative IC50, read-out: IC50), above 1980 nM. The IC50 with NCI-H1975 (setting [4]) was 80 nM; with NCI-H1975 (setting [5]), 20 nM; in the test on NCI-H460 (setting [4]), 10 nM; with NCI-H460 (setting [5]), 10 nM; in the test with OVCAR-3 (setting [4]) it was above 1980 nM; in the test with OVCAR-3 (setting [5]), 20 nM. The IC50 with SK-OV3 (Homo sapiens, SK-OV-3, CTG assay 72 h, absolute IC50, read-out: Ab IC50) worked out at 20 nM; in the test with SK-OV3 (Homo sapiens, SK-OV-3, CTG assay 72 h, relative IC50, read-out: IC50), 20 nM. Also, the “overall survival (median)” value in the test on biliary tract cancer (ABC-02, 410 patients with BTC) was 8.1 months. Besides, the “progression-free survival (median)” value in the test on biliary tract cancer (ABC-02, patients with BTC) is recorded as 5 months.

The record behind these values is patent US20190022117A1, “COMBINATION THERAPY” (NuCana plc, priority 2015, published 2019).
